Values after ≈ are worked out from the molar mass of the structure shown.

By IC50 is commonly meant the concentration needed to halve the response being measured. In general, MIC refers to the lowest concentration that inhibits growth of the organism. One may read the inhibition as how much of the control response was suppressed.

Experiment [1] is described as follows: Antioxidant activity of the compound by DPPH assay. Format: functional.
The test system of another experiment is Bacillus cereus. As to the kind of experiment: Antibacterial activity against Bacillus cereus by microtiter plate method. It counts as functional.
For a further experiment, the system named is Vibrio anguillarum. Nature of the experiment: Antibacterial activity against Vibrio anguillarum by microtiter plate method. It counts as functional.
The subject of a further experiment is Vibrio parahaemolyticus. Nature of the experiment: Antibacterial activity against Vibrio parahaemolyticus by microtiter plate method. It counts as functional.
For experiment [2], the target named is T1, Tyrosine-protein phosphatase non-receptor type 1 (Homo sapiens, UniProt P18031).
T1 sequence (P18031 whole entry): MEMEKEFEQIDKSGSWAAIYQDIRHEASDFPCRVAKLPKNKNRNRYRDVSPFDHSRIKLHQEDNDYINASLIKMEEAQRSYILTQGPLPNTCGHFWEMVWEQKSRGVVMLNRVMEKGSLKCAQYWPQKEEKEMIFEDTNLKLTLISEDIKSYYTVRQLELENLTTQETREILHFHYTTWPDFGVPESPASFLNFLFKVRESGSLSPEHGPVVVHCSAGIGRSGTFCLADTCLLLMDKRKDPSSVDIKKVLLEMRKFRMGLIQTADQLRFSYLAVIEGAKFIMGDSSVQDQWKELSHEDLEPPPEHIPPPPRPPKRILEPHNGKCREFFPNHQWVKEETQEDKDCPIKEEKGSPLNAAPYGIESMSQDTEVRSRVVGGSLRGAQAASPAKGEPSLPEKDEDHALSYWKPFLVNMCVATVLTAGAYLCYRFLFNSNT
As to the kind of experiment: Inhibition of human recombinant PTP1B (1 to 322 residues) expressed in Escherichia coli using pNPP as substrate incubated for 10 mins followed by substrate addition and measured after 30 mins by microplate reader based analysis.

In experiment [3] the test system is Staphylococcus aureus. As to the kind of experiment: Antimicrobial activity against Staphylococcus aureus. Format: functional.
For experiment [4], the target named is T1, Tyrosine-protein phosphatase non-receptor type 1. As to the kind of experiment: Inhibition of PTP1B (unknown origin).
Experiment [5] has as its target T2, Tyrosine-protein phosphatase non-receptor type 1 (Homo sapiens) (UniProt P18031).
T2 sequence (whole entry): T1 sequence (P18031 whole entry)
Nature of the experiment: Inhibition of PTP1B (unknown origin) at 15.7 uM relative control.

Experiment [6] concerns the target T2, Tyrosine-protein phosphatase non-receptor type 1 (Homo sapiens). As to the kind of experiment: Inhibition of human recombinant PTP1B (1 to 322 residues) expressed in Escherichia coli using pNPP as substrate at 36 uM incubated for 10 mins followed by substrate addition and measured after 30 mins by microplate reader based analysis relative to control. Conditions: time 40.0 min.

The next experiment has as its system Pseudomonas aeruginosa. Nature of the experiment: Antimicrobial activity against Pseudomonas aeruginosa. It counts as functional.
Experiment [7] has as its system Staphylococcus aureus. Nature of the experiment: Antibacterial activity against Staphylococcus aureus ATCC25923 measured after 18 hrs by agar dilution method. It counts as functional.
In another experiment the test system is Candida albicans. As to the kind of experiment: Antifungal activity against clinical isolate Candida albicans measured after 24 hrs by agar dilution method. It counts as functional. In general terms: In agar dilution, organisms are placed on agar that contains the substance at set levels.
Experiment [8] deals with Staphylococcus aureus. As to the kind of experiment: Antibacterial activity against Staphylococcus aureus ATCC 6538 inhibition of zones at 50 ug per disk by standard disk assay. It counts as functional. The settings on record: read-out: IZ.
The subject of experiment [9] is Mycolicibacterium smegmatis. Nature of the experiment: Antimicrobial activity against Mycobacterium smegmatis. Format: functional.

In the case of `COC(=O)[C@H]1C[C@@H](C)[C@H]2[C@@H](C=C[C@H](C)[C@@H]2/C=C/C=C/C(=O)O)[C@@H]1C`, in experiment [1], the IC50 is 2.8 µM. With `O=c1[nH]c2ccccc2c(-c2ccccc2)c1O`, the MIC in the experiment with Bacillus cereus, with Vibrio anguillarum and in the experiment with Vibrio parahaemolyticus was 25 µM (≈ 5.93 µg/mL) in each case. On to `COc1cc(C)c(Oc2cc(C)cc(O)c2O)c(O)c1`, for which the concentration for half-maximal inhibition (IC50) in experiment [2] was 13 µM.

In turn, `COc1cc(O)c2c(c1C)[C@H](C)C(=O)OC2=O` registered a minimal inhibitory concentration (MIC) in the experiment on Staphylococcus aureus [3] of 33 µg/mL. As to `COC(=O)[C@@]12Oc3c(-c4ccc5c(c4O)C(=O)C4=C(O)C[C@H](C)[C@H](O)[C@]4(C(=O)OC)O5)ccc(O)c3C(=O)C1=C(O)C[C@H](C)[C@H]2O`, the IC50 in experiment [4] was 5.9 µM. With `COC(=O)[C@@]12Oc3ccc(-c4ccc5c(c4O)C(=O)C4=C(O)C[C@H](C)[C@H](O)[C@]4(C(=O)OC)O5)c(O)c3C(=O)C1=C(O)C[C@H](C)[C@H]2O`, in experiment [4], the IC50 came to 9.6 µM. The same measure, in the same setting: the figure for `COC(=O)[C@@]12Oc3ccc(Oc4cccc5c4C(=O)C4=C(O)C[C@H](C)[C@H](O)[C@]4(C(=O)OC)O5)c(O)c3C(=O)C1=C(O)C[C@H](C)[C@H]2O` is 6 µM. With `COC(=O)[C@@]12Oc3ccc(-c4ccc5c(c4O)C(=O)C4=C(O)C[C@H](C)[C@@H](O)[C@]4(C(=O)OC)O5)c(O)c3C(=O)C1=C(O)C[C@H](C)[C@H]2O`, in experiment [5], the inhibition stood at 40%. Turning to `COc1cc(O)cc(C)c1Oc1cc(C)cc(O)c1O`, the inhibition in experiment [6] amounted to 32%. As for `CC1(C)C=Cc2c(ccc3c2N[C@]2(C[C@@]45NC(=O)[C@]6(CCCN6C4=O)CC5C2(C)C)C3=O)O1` (stereo partly drawn), inhibition of growth in the experiment on Pseudomonas aeruginosa (MIC) required 0.8 µM (≈ 0.358 µg/mL).

With `C=C1CCC[C@]2(C)C1C[C@@H](C(C)(C)O)C[C@@H]2O` (stereo partly drawn), the MIC in the experiment with Staphylococcus aureus [7] and with Candida albicans was more than 128 µg/mL throughout. `C=C1CCC[C@@]2(C)CC(O)[C@H](C(C)(C)O)C[C@]12O` (stereo partly drawn): the minimum inhibitory concentration (MIC) against Staphylococcus aureus [7] and against Candida albicans was more than 128 µg/mL each time. For `COc1ccc(OC)c2c1OCc1cc(C)cc(O)c1C2=O`, in the experiment on Staphylococcus aureus [8], the zone of inhibition at 50 µg/disc stood at 11 mm. Consider `C=C1CCC[C@@]2(C)CC[C@H](C(C)(C)O)CC12` (stereo partly drawn), for which the MIC in the experiment on Staphylococcus aureus [7] and against Candida albicans was more than 128 µg/mL each time. As to `C=C1CCC[C@@]2(C)C[C@H](O)[C@H](C(C)(C)O)C[C@@]12O`, the MIC against Staphylococcus aureus [7] and against Candida albicans was more than 128 µg/mL in each case. `COc1cc(C)c(Oc2cc(C)cc(O)c2)c(O)c1` [CYPERIN]: the IC50 in [2] worked out at 17 µM.

In the case of `Cc1cc(O)c2c(c1)COc1c(O)ccc(O)c1C2=O`, the zone of inhibition at 50 µg/disc with Staphylococcus aureus [8] worked out at 11 mm. The compound `O=c1c(O)c(-c2ccc(O)c(O)c2)oc2cc(O)cc(O)c12` [QUERCETIN] had an IC50 in [1] of 5.7 µM.

With `O=C1c2c(O)cc(CO)cc2COc2c(O)c(O)cc(O)c21`, the zone of inhibition at 50 µg/disc in the experiment on Staphylococcus aureus [8] is 11 mm. For `C=C1C[C@@H](O)C[C@@]2(C)CC[C@H](C(C)(C)O)CC12` (stereo partly drawn), the MIC in the experiment with Staphylococcus aureus [7] and with Candida albicans was more than 128 µg/mL each time. On to `C=C1CCC[C@@]2(C)CC[C@H](C(C)(C)O)C[C@]12O`, for which the minimal inhibitory concentration (MIC) against Staphylococcus aureus [7] and against Candida albicans was more than 128 µg/mL in each case. Turning to `COc1cc(O)c(OC)c2c1C(=O)c1c(O)cc(C)cc1CO2`, the zone of inhibition at 50 µg/disc in the experiment with Staphylococcus aureus [8] was 11 mm. Still for that read-out and setting: then `COc1ccc(OC)c2c1OCc1cc(CO)cc(O)c1C2=O`, with 11 mm. For `O=C1C=C2OC3(O)CC(=O)c4c(O)cccc4C3=C2c2cccc(O)c21` (stereo not drawn), the MIC against Staphylococcus aureus [3] turned out to be 86 µM; in experiment [9] it was 172 µM (≈ 59.9 µg/mL).
